The results in this text go back to US8273723B2, “Compositions and methods for improved glycoprotein sialylation” (Sigma-Aldrich Co. LLC, priority 2007, dated 2012).

In data set [1] the test system is hIFNγ protein produced by CHO-hIFNγ cells. Kind of data set: Sialic acid content of purified hIFNγ from shRNA CHO cells by HPLC. The settings on record: for levels of sialic acid in hIFNγ protein versus non-target shRNA control: day 6; for sialic acid content of hIFNγ protein: n=4. It is filed as cell-based, CHO (Chinese hamster ovary). The protocol:
The levels of sialic acid were analyzed by HPLC in human IFNγ protein produced by the sialidase shRNA targeted cells and non-target shRNA control cells. Spent media samples were collected from 5 L bioreactor cultures at stationary phase (day 6, cell viability around 95%) and death phase (day 13, cell viability around 20%). Human interferon gamma proteins were purified from cell culture supernatants by immunoaffinity purification. Briefly, after centrifugation and filtration to remove cell debris, 30 ml of a protein sample was loaded on an affinity column conjugated with hIFNγ antibody. After washing the column, hIFNγ protein was eluted with elution buffer. Purification was carried out on an AKTA Explorer 100 chromatographic system (Amersham Biosciences). The purified protein was quantified by ELISA as previously described.
The sialylation of purified hIFNγ proteins were analyzed by HPLC. Briefly, 50 μg of purified hIFNγ protein sample was lyophilized and resuspended in 100 μl of ultrapure water with 2N acetic acid. The sample was hydrolyzed at 80° C. for 3 hours. Then the sample was filtered and speed-vac dried. Released sialic acid residues were derivatized with a fluorogenic compound, 1,2-diamino-4,5-(methylenedioxy)benzene (DMB), followed by HPLC using C18 reverse phase column.

The test system of a further data set is Neu1 mRNA. As to the kind of experiment: Q-RT PCR of Neu1 mRNA in stably shRNA-transduced CHO-hIFNγ cells. The settings on record: FIG. 7A. The class given is cell-based, CHO (Chinese hamster ovary). The protocol: (§1) The expression of each of the three CHO sialidase genes was knocked down using small interfering RNA (siRNA) technologies. Based on the cDNA sequences, several siRNAs against the CHO sialidase genes (Neu1, Neu2, and Neu3) were designed and synthesized for each gene. These siRNAs were transfected into a CHO cell line stably expressing human interferon gamma (CHO-hIFNγ). The transfections were performed in duplicate. Forty-eight hours after transfection, the cells were harvested. RNA and protein were isolated from the transfected cells. Reverse transcription polymerase chain reaction, (RT-PCR) and quantitative RT-PCR (Q-RT-PCR) using gene-specific primers were performed using standard procedures.
(§2) DNA fragments encoding the effective siRNAs for each sialidase gene (Neu1-S4, Neu2-S3, Neu3-S2) were cloned into the pLKO.1-puro shRNA expression vector. After DNA sequencing confirmation, plasmid DNAs were transfected into HEK293 cells to produce lentivirus packed with shRNA cassettes. After infection of suspension CHO-hIFNγ cells with lentivirus containing shRNA cassettes and puromycin selection, CHO-hIFNγ cells harboring shRNA cassettes for Neu1, Neu2 and Neu3 genes were obtained. Q-RT PCR was performed to confirm gene-silencing effects at the level of mRNA (FIG. 7). […]

For data set [2], the system named is proteins encoded by the CHO Neu1, Neu2, and Neu3 genes. Kind of data set: Sialidase assay in the presence of sialidase inhibitors, all sialidases. The class given is biochemical, CHO (Chinese hamster ovary). The settings on record: two concentrations, FIG. 2. As for the experimental part: (§3) Enzymatic sialidase activity studies were performed to confirm that the proteins coded by these two new genes having the expected functions in CHO cells. Briefly, the coding regions for the Neu1 (SEQ ID NO:1) and Neu3 (SEQ ID NO:3) genes, as well as the coding region of the previously reported Neu2 gene (Ferrari et al. (1994) Glycobiology 4(3):367-373) were cloned into pcDNA3.1 mammalian expression vectors. The expression constructs then were transfected into COS7 cells to overexpress the sialidase proteins. The pcDNA3.1 vector alone was also transfected into COS7 cells as the mock transfection. An expression construct containing green fluorescence protein (GFP) was cotransfected into the COS7 cells to normalize the transfection efficiency.
(§4) Twenty-four hours after transfection, the cells were lysed by sonication. The cell debris was removed by centrifugation at 1000×g for 10 min at 4° C. and the supernatant factions were collected for enzymatic activity. The sialidase assay was performed as previously described (Gramer et al. (1993) Biotechnol Prog 9: 366-373) using 1 mM of 4-methylumbelliferone-Neu5Ac as substrate. For each lysate, 100 μg of protein was used in the assay. The assay was performed in triplicate. […] In fact, the Neu3 protein had more than approximately 6-15 times as much activity as Neu2. […]

Another data set deals with CHO Neu3. Kind of data set: Sialidase assay in the presence of sialidase inhibitors, CHO Neu3. It is filed as biochemical, CHO (Chinese hamster ovary). As for the experimental part: as §3, §4
In the next data set the test system is Neu2 mRNA. As to the kind of experiment: Q-RT PCR of Neu2 mRNA in stably shRNA-transduced CHO-hIFNγ cells. It is filed as cell-based, CHO (Chinese hamster ovary). The settings on record: FIG. 7B. The protocol:
as §1, §2

Data set [3] deals with sialidase activity in CHO-hIFNγ cells. Kind of data set: Sialidase activity assay in CHO-hIFNγ cells harboring shRNA. It is filed as cell-based, CHO (Chinese hamster ovary). The settings on record: stable shRNA, FIG. 8. The protocol:
(§5) Twenty-four hours after transfection, the cells were lysed by sonication. The cell debris was removed by centrifugation at 1000×g for 10 min at 4° C. and the supernatant factions were collected for enzymatic activity. The sialidase assay was performed as previously described (Gramer et al. (1993) Biotechnol Prog 9: 366-373) using 1 mM of 4-methylumbelliferone-Neu5Ac as substrate. For each lysate, 100 μg of protein was used in the assay. The assay was performed in triplicate. […] In fact, the Neu3 protein had more than approximately 6-15 times as much activity as Neu2.
as §2, with “7). The mRNA expression knockdown of Neu1 (Neu1-S4) was over 95% in Neu1-shRNA cells (FIG. 7A), about 50% knockdown with Neu2 (Neu2-S3) in Neu2-shRNA cells (FIG. 7B), and over 70% knockdown with Neu3 (Neu3-S2) in Neu3-shRNA cells (FIG. 7C).” for “7).”

A further data set deals with Neu3 mRNA. As to the kind of experiment: Q-RT PCR of Neu3 mRNA in stably shRNA-transduced CHO-hIFNγ cells. It is filed as cell-based, CHO (Chinese hamster ovary). The conditions noted are these: FIG. 7C. As for the experimental part:
as §1, §2

Data set [4] is described as follows: Sialidase assay on lysates of COS7 cells overexpressing CHO sialidase proteins. It is filed as biochemical, CHO (Chinese hamster ovary). As for the experimental part:
as §3, §5

On to “Neu1-S4: siRNA/shRNA against CHO Neu1; sense GGACACUACGCGUCAUCUGtt (SEQ ID NO 10), antisense CAGAUGACGCGUAGUGUCCtt (SEQ ID NO 11) (sense GGACACUACGCGUCAUCUGTT; antisense CAGAUGACGCGUAGUGUCCTT; chemistry not given here; listed as Cricetulus griseus)”, for which the “levels of sialic acid in hIFNγ protein versus non-target shRNA control” value in data set [1] is given as “not significantly different”. Also, the “sialylation of hIFNγ versus non-target shRNA control” value in data set [1] (day 13) is “no obvious improvement”. The “mRNA expression knockdown of Neu1” value in the data set with Neu1 mRNA is reported as “over 95%”.
Turning to `CC(=O)N[C@H]1[C@H]([C@H](O)[C@H](O)CO)OC(C(=O)O)=C[C@@H]1O` [Neu5Ac2en], in data set [2], the “inhibitory effect on sialidase activity (comparison of the two inhibitors)” value is “greater inhibitory effects than Neu5Ac”. Also, the “decrease of sialidase activity” value in the data set with CHO Neu3 (0.1 mM inhibitor) is “about 30%”. In addition, the “reduction of sialidase activity” value in the data set with CHO Neu3 (0.5 mM inhibitor) is on record as “about 60%”.
Turning to “Neu2-S3: siRNA/shRNA against CHO Neu2; sense GACGGAUGAGCAUGCAGAUtt (SEQ ID NO 14), antisense AUCUGCAUGCUCAUCCGUCtt (SEQ ID NO 15) (sense GACGGAUGAGCAUGCAGAUTT; antisense AUCUGCAUGCUCAUCCGUCTT; chemistry not given here; listed as Cricetulus griseus)”, the “levels of sialic acid in hIFNγ protein versus non-target shRNA control” value in data set [1] is given as “not significantly different”. In addition, the results for the “sialic acid content of hIFNγ protein” value in data set [1] (day 6 (stationary phase)) and in data set [1] (day 13 (death phase)) were 1.945±0.111 pmol sialic acid/pmol hIFNγ and 4.948±0.150 pmol sialic acid/pmol hIFNγ, respectively. In addition, the “mRNA expression knockdown of Neu2” value in the data set on Neu2 mRNA was “about 50%”.
For “Neu3-S2: siRNA/shRNA against CHO Neu3; sense GUACCAGCCGUGUGUUACUtt (SEQ ID NO 18), antisense AGUAACACACGGCUGGUACtt (SEQ ID NO 19) (sense GUACCAGCCGUGUGUUACUTT; antisense AGUAACACACGGCUGGUACTT; chemistry not given here; listed as Cricetulus griseus)”, the “sialidase activity compared to non-target shRNA control” value in data set [3] is “most dramatic reduction”. In addition, the “sialic acid content of hIFNγ protein” value in data set [1] (day 6 (stationary phase)) is recorded as 2.133±0.101 pmol sialic acid/pmol hIFNγ. Besides, the “mRNA expression knockdown of Neu3” value in the data set with Neu3 mRNA is recorded as “over 70%”.

B1: CHO Neu3: CHO plasma membrane-associated sialidase, 417 aa, SEQ ID NO:4 (protein, listed as Cricetulus griseus)
chain: MEEVSACSLNSTLFQQEHQKGTTYRIPALLYIPPSHTFLAFAEKRSSSKDVDALHLVLRRGVMKGHSVEWGPLQPLMEATLPGHRTMNPCPVWEQSTSRVLLFFICVPDRVTEHWQIRSGKNAARLCFLCSQDAGCSWGEVKDLTEEVIGSELKHWATFAVGPGHGIRLQSGRLIIPTYAYYFSCRFLCFPCSVKPHSLMIYSDDLGVTWHHGKLIGPQVTGECQVAEVTGTSGNLVLYCNARTPNRFRAESFSTDYGDCFQKPTLNTQLCEPRYGCQGSIVSFQPLKMPFSQDPIGKAAPTTQKSPLLDSFLEREEGVGRPSGTWLLYSHPTSKKRRINLGIYYNRNPLEVTCWSRPWILHCGPCGYSDLAVVEEQGLFACLFECGQEHECEQIAFRLFSVQEVLSCEDCTGPSRD
As for B1, the “sialic acid content of hIFNγ protein” value in data set [1] (day 13 (death phase)) is listed as 5.175±0.414 pmol sialic acid/pmol hIFNγ. Also, in data set [4] (100 μg lysate protein, 1 mM 4-methylumbelliferone-Neu5Ac, normalized with GFP readings), the “sialidase activity compared to negative control (mock transfection) and positive control (Neu2)” value was “significant sialidase activities”. Further, in data set [4] (more than approximately, lysates of transfected COS7 cells), the “sialidase activity relative to Neu2” value is 6-15 times.
